Test results from paper PMC6270838, “Design and Synthesis of C-Terminal Modified Cyclic Peptides as VEGFR1 Antagonists” (Molecules, 2014).
Bridge positions count the residues as written; N and C are the ends. Peptide text beside a SMILES is read from it. * marks the point of attachment. X1 = COc1ccc2c(CN*)cc(=O)oc2c1

Experiments:
[1] = water solubility (qualitative); assay type: physicochemical; details: qualitative comparison between peptides
[2] = biological target: recombinant human VEGFR1 extracellular domains (ECD) (Homo sapiens, UniProt P17948); details: average of at least 3 tests each in triplicate
Description: Peptides VEGFR1 binding ability was determined by a competition ELISA test. Briefly, recombinant human VEGFR1 extracellular domains (ECD) were adsorbed on the surface of a 96-well microplate. After washing and BSA blocking, the plate was incubated with different compounds at 100 µM in competition with biotinylated VEGF (btVEGF). After additional washing steps, the remaining btVEGF was detected by chemiluminescence, via an HRP-conjugated streptavidin.
The 96-well plates were coated with humanized extracellular domains (ECD) of VEGFR-1 (R&D Systems, Abingdon, UK) in PBS (20 ng/well) overnight at 4 °C. On the following day, the plates were washed with 250 µL wash buffer (PBS containing 0.1% (v/v) Tween 20) three times and treated with blocking buffer (PBS containing 3% (w/v) BSA) at 37 °C for 2 h, followed by three washes with wash buffer. 50 µL of peptides solution at twice the desired final concentration (in PBS containing 2% DMSO) were added in triplicate wells and the plate was kept at 37 °C for 1 h. A solution of btVEGF-A165 (R & D Systems, Abingdon, UK) at twice the desired final concentration (typically 100 pM) in 50 µL PBS was added. After 2 h incubation, the plates were washed four times with wash buffer. 100 µL of Streptavidin‑Horseradish Peroxidase (Amersham, Pittsburgh, PA, USA) diluted 1:8000 w in PBS containing 0.1% (v/v) Tween 20 and 0.3% (w/v) BSA) were then added to each well to detect the btVEGF‑A165 bound to the ECD of VEGFR1. After 45 min incubation at 37 °C and in the dark, the plate was washed five times with wash buffer. A volume of 100 µL of SuperSignal West Pico Chemioluminescent Substrate (Pierce, Rockford, IL, USA) was added and the chemiluminescence was quantified with a Perkin Elmer Victor 2 spectrophotometer (Victor Wallac Multilabel reader). The percentages of displacement were calculated by the following formula: 100 × [1 − (S − NS)/(MS − NS)] where S is the signal measured, NS is the nonspecific binding signal defined as the signal measured in the absence of coated receptor on the microplate, and MS is the maximum binding signal obtained with (bt)-VEGF-A165 without competitor.

D2 domain of VEGFR1 = details: shares with VEGF a common binding site on D2 (His223, Arg224); cited from earlier work
From the text: In the laboratory, a series of cyclic octapeptides has been developed.

Chain of recombinant human VEGFR1 extracellular domains (ECD) (P17948 27-758 limits assumed): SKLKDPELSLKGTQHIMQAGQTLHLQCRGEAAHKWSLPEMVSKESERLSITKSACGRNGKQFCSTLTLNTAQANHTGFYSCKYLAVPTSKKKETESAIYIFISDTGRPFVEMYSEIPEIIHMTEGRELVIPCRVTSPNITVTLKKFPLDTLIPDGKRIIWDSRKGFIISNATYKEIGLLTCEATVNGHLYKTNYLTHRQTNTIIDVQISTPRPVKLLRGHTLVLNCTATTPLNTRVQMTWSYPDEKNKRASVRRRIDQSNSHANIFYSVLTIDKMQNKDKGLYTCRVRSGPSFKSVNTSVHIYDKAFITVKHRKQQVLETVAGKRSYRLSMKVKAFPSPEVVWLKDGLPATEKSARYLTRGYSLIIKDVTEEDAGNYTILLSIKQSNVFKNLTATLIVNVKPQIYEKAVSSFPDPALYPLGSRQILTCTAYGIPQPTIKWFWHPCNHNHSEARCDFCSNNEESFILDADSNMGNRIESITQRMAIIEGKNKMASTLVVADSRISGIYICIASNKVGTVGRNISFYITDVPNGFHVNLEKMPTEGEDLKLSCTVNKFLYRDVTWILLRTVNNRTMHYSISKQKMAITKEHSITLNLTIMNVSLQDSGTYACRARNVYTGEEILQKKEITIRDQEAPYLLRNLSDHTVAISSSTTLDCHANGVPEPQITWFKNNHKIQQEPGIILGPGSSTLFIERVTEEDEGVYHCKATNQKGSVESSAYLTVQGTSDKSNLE

COc1ccc2c(CNC(=O)[C@@H]3CCC(=O)N[C@@H](Cc4ccc(O)cc4)C(=O)N[C@@H](CCCCN)C(=O)N[C@@H](CC(=O)O)C(=O)N[C@@H](CCC(=O)O)C(=O)NCC(=O)N[C@@H](CC(C)C)C(=O)N[C@@H](CCC(=O)O)C(=O)N3)cc(=O)oc2c1 [Peptide 19] (YKDEGLEE-X1; lactam N-8)
water solubility [1]: slightly less water soluble than 15 and 16
Displacement (%) 30 µM ([2]; dose dependence, peptide 30 µM, NA means no activity): 11%
Displacement (%) 50 µM ([2]; dose dependence, peptide 50 µM): 41%
Displacement (%) 100 µM ([2]; dose dependence, peptide 100 µM): 68%
Displacement 100 µM (%) ([2]; percentage of btVEGF displaced by peptide at 100 µM, btVEGF-A165 typically 100 pM, chemiluminescence, same btVEGF batch): 68%

c[YYDEGLEE]-NH2 (sidechain bridge or staple) [Peptide 1]
interaction with the D2 domain of VEGFR1 by NMR (D2 domain of VEGFR1): interacts
